Two molecules from patent publication US10155765B2, “Carboxamide inhibitors of IRAK4 activity” (MERCK SHARP & DOHME CORP., priority 2015, dated 2018) can be followed below.

The experiment concerns the target IRAK4 (Homo sapiens (Human), UniProt Q9NWZ3). Kind of experiment: IRAK4 Kinase Assay (IMAP fluorescence polarization). It counts as biochemical. To be noted: GST tagged IRAK4, 100 μM ATP, 30 minutes at 25° C., IMAP FP. The text has this: Other assays are known in the literature and could be readily performed by those of skill in the art.
The reaction is initiated by the addition of ATP.
(In fluorescence polarisation assays a small probe gives low polarisation when free and higher when bound to something large.)

Structures can show the parent of a compound that is named as a salt.

Chain of IRAK4 (Q9NWZ3 whole entry): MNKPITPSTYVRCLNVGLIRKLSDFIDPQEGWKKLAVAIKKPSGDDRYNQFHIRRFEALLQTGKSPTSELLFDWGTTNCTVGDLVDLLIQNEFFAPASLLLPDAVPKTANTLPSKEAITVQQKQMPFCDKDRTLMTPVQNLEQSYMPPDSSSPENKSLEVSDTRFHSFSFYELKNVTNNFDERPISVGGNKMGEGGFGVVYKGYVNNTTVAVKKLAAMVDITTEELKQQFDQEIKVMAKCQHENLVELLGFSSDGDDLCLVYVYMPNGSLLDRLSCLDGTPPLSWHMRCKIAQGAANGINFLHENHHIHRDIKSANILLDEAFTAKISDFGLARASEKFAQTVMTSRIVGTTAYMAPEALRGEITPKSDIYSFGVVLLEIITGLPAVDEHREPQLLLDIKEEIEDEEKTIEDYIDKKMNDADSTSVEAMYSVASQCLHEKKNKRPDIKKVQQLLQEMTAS

As to `CNC(=O)c1nn(CCO)cc1NC(=O)c1ccc2cnc(N[C@@H]3CCCC[C@@H]3N)nn12` [Example 65, 2-{[(1R,2S)-2-aminocyclohexyl]amino}-N-[1-(2-hydroxyethyl)-3-(methylcarbamoyl)-1H-pyrazol-4-yl]pyrrolo[2,1-f][1,2,4]triazine-7-carboxamide trifluoroacetate], half-maximal inhibition (IC50) required 63 nM.

As to `COCCn1cc(NC(=O)c2ccc3cnc(N[C@@H]4CCCC[C@@H]4N)nn23)c(C(N)=O)n1` [Example 66, 2-{[(1R,2S)-2-aminocyclohexyl]amino}-N-[3-carbamoyl-1-(2-methoxyethyl)-1H-pyrazol-4-yl]pyrrolo[2,1-f][1,2,4]triazine-7-carboxamide trifluoroacetate], the IC50 (commonly the concentration that inhibits the measured activity by half) came to 6 nM.
